These results are taken from a melting point compilation (Tetko et al.; mined from patent text by program, amines drawn as free bases though some values may be those of a salt).

The melting point is the temperature, or range, at which the solid turns liquid.

SMILES strings stand for the structures. A value given as a limit tells only on which side of the number the result lay.

The compound `CN1C(=O)CCC2(C)c3ccc(Sc4ccc5ccccc5n4)cc3CCC12` (single isomer, unassigned; (+)) yielded a melting point of 175 to 177 °C.
With `NC(=O)C1CCCc2c1c1cc(OCCCP(=O)(O)O)ccc1n2Cc1ccccc1` (stereo not given), the melting point was 200 to 201 °C.
The same measure for `CN(C[C@H](O)[C@@H](O)[C@H](O)[C@H](O)CO)C(=O)CCCO`: 78 to 79 °C; for `OCc1cccc2nc(-c3ccncc3)oc12`: 146 to 147 °C.
The same measure for `COC(=O)c1cccc(NC(=O)C(C)CSC(C)=O)n1` (stereo not given): 75 to 77 °C.
The same measure for `O=C(C[C@@H](O)C(F)(F)F)N[C@H]1CC[C@H](CCN2CCC(c3cccc4c3CCO4)CC2)CC1`: 189 °C.
The compound `O=C(OC(c1ccccc1)c1ccccc1)C(C1CC(Cl)=NO1)N1C(=O)c2ccccc2C1=O` (stereo not given) gave a melting point of 178 to 179 °C.
The same measure for `Cc1oc2ccccc2c1C(=O)N(Cc1ccccc1)Cc1ccc2cc(O)ccc2c1`: 190 to 193 °C.
To `CCOC(=O)C1CC(=O)c2c(OC)ccc(OC)c2C1` (stereo not given) belongs 96 to 98 °C; to `CCN=C1SC(=CC(=O)O)C(=O)N1CC`, 148 to 152 °C.
The same measure for `CCc1ccc2c(c1NC(=O)CC1c3ccccc3Oc3ccccc31)OC(C)C2` (stereo not given): 278 to 279 °C.
Compound `CCCCCCCCCCCCC(OC)C1=CC(=O)OC1O` (stereo not given) displayed a melting point of 53 to 54 °C.
For the compound `COc1cc(Nc2nc3cccc(-c4ccc(S(C)(=O)=O)cc4)c3o2)cc(OC)c1OC`, the melting point lay within 205 to 207 °C.
The same measure for `CC12CCCc3cc(Nc4ncc(C(=O)O)cn4)cc(c31)CCC2`: above 300 °C.
The same measure for `O=C(Nc1nc(C(F)(F)C(F)(F)F)c(CF)s1)c1cc(C(F)(F)F)cc(C(F)(F)F)c1`: 133 to 134 °C.
The same measure for `COc1ccc(-c2ccccn2)c(S(=O)c2nc3cc(OC)c(OC)cc3[nH]2)c1` (stereo not given): 208 to 210 °C; for `CCOC(=O)CCCn1c(Nc2ccc(Cl)cc2)nc2c(Cl)ccc(C(CC)CC)c21`: 149 to 150 °C.
`O=c1oc(-c2cccnc2)cc(O)c1SCc1ccccc1` yielded a melting point of 183 to 184 °C.
In turn, `COc1cc(OC)c2c(=O)c3oc4cc(OC)ccc4c3oc2c1` had a melting point of 272 to 274 °C.
Turning to `Cc1ccc(S(=O)(=O)N2[C@@H](CCC(N)=O)CC[C@H]2c2ccc(F)cc2)cc1` (racemic), the melting point came to 136 °C.
To `CCOC(=O)c1ccc(OCC)c(-c2ncc(C(=O)OCC)c(=O)[nH]2)c1` belongs 180 to 182 °C.
The same measure for `CCCN1CCCN(c2c(N3CCCN(CCC)CC3)c(=O)c2=O)CC1`: 90 to 92 °C.
To `CC(C)N1CCC(=C2c3ccn(C)c3CCn3ccnc32)CC1` belongs 178 °C; to `O=C(c1ccccc1)c1ccc(O)c(Cl)c1Cl`, 123 to 126 °C; to `CCOc1ccc(C2SC(=N)NC2=O)c(OCC)c1` (stereo not given), 179 to 181 °C.
On to `O=C(C1CCN(c2ccncn2)CC1)N1CCN(Cc2ccccc2)CC1`, for which the melting point fell in the range of 107 to 108 °C.
To `COc1cc(Oc2cccc3c2NC(=O)C3)cc(OC)c1OC` belongs 170 to 171 °C.
The same measure for `CN(Cc1ccccc1)c1cc(Oc2cccc(C(F)(F)F)c2)nc(C(=O)O)c1`: 80 to 82 °C; for `NC1(C(=O)c2ccccc2)CCSC1` (stereo not given): 147 to 149 °C.
The same measure for `CCOC(=O)C(=CNc1ccc(COC(C)=O)cc1I)C(=O)OCC`: 128 to 131 °C; for `CCCCCCCCCCCOc1cccc(C(=O)O)c1`: 88 °C; for `COc1c(Cl)cc(F)cc1C1OC(=O)NC1=O` (stereo not given): 177 to 179 °C.
In turn, `CCOC(=O)CCc1ccc(OCC(=O)N(CC)CC)cc1Oc1ncc(C(F)(F)F)cc1Cl` registered a melting point of 88.5 to 89 °C.
As to `Nc1nc2ccc(S(=O)(=O)n3c(CCCC(=O)O)cc4cc(Cl)ccc43)cc2s1`, the melting point was in the range of 155 to 162 °C.
To `Cc1c(NC(=O)c2ccc(OC[C@@H]3CCCO3)cc2)ccc2c1cc(CNCC(C)(C)C)n2C` belongs 179 °C; to `Cc1ccc(CN2CCC(c3cc(-c4ccc(Cl)cc4)[nH]n3)CC2)cc1`, 181 to 183 °C.
The same measure for `Cn1ccc(C(=O)O)c(OCc2ccccc2)c1=O`: 129 to 130 °C; for `CSC(=S)N1Cc2[nH]c3ccccc3c2CC1CO` (stereo not given): 114 to 116 °C.
`COc1cccc(CNC(=O)c2nc3scc(CCOc4ccc(C(=O)O)cc4)c3c(=O)[nH]2)c1` registered a melting point of 237 to 241 °C.
The same measure for `CCOC(Cc1ccc(OCCN2CCOc3ccccc32)cc1)C(N)=O` (stereo not given): 107 to 109 °C; for `Cn1ncnc1COc1nn2c(-c3ccc(F)cc3)nnc2cc1-c1ccsc1`: 268 to 269 °C; for `Nc1ccc(Nc2ncnc3cc(-c4ccccc4)sc23)cc1`: 210 to 211 °C.
To `O=Cc1cc(Br)ccc1C(=O)O` belongs 202 °C; to `C#Cc1ccc(-c2[nH]c(=O)c3cc(OC)ccc3c2[N+](=O)[O-])cc1`, 246 to 248 °C.
To `CC(F)C(C)(N)C(=O)O` (stereo not given) belongs 226 °C; to `CCCCCCCCCCCCCCCCCC(=O)c1cc(C(=O)OCC)ccc1O`, 74 °C.
On to `CCc1cccc(CC)c1NC(=O)NCC1(c2ccccc2)CCCCC1`, for which the melting point lay in the range of 185 to 186 °C.
The same measure for `Cc1ccc(-c2ccccc2C(=O)Nc2ccc(C(=O)N(CCO)c3ccccc3C)cc2)cc1`: 115 to 118 °C.
`COc1c2c(c(C3CCCCC3)c3c4c(ccc13)OCO4)CNC2=O` registered a melting point of 244 to 246 °C.
For the compound `CC(=O)N1CCN(CCOC2c3ccccc3C(=O)N2c2ccc3ccc(Cl)nc3n2)CC1` (stereo not given), the melting point stood at 172 °C.
The same measure for `Cc1cccc(-c2cc(F)c3c(c2)CC(CN)O3)c1` (stereo not given): above 250 °C; for `CCN(CC)C(=O)N(C1CCCCC1)C1CCN(C(=O)C(Cc2ccc(Cl)cc2)NC2CCNCC2)CC1` (stereo not given): above 220 °C; for `COc1cc(-c2nc3ccc(OC(F)(F)F)cc3[nH]2)ccc1O`: 188 to 190 °C.
The same measure for `CC1(C)CC(=O)C(c2c(Cl)cc([N+](=O)[O-])cc2Cl)C(=O)C1`: 288 to 290 °C; for `CCCn1c(=O)c2c(NC)n[nH]c2n(Cc2ccccc2Cl)c1=O`: above 300 °C.
To `CC(=O)N(O)Cc1cccc(C(O)C#Cc2ccsc2)c1` (stereo not given) belongs 133 °C; to `COC1CCN(S(=O)(=O)c2ccc(S(N)(=O)=O)cc2)CC1`, 153 to 154 °C; to `CCn1c(-c2ccc(Cl)c(S(=O)(=O)N(C)C)c2)csc1=Nc1ccccc1C`, 164 to 166 °C.
Compound `NC(=S)Cc1cccc(Oc2ccccc2)c1O` came in with a melting point of 70 °C.
To `COc1ccc(C2(c3ccc(OC)cc3)CC(C)N=C2NC(=O)c2cc(C)[nH]n2)cc1` (stereo not given) belongs 173 °C.
Regarding `CN1CCN(Cc2ccccc2F)C(C2=NCCN2)C1` (stereo not given), the melting point lay within 160 to 162 °C.
The same measure for `CCn1c(=O)c2[nH]c(C(C)C)nc2n(Cc2ccc3c(c2)OCO3)c1=O`: 200 to 232 °C; for `O=C(c1ccc(O)cc1)c1ccc(OCCO)cc1`: 146 to 147 °C.
To `Cc1c(Cl)cccc1S(=O)(=O)Nc1nc(C(C)(C)C)cs1` belongs 178 °C.
For `COc1ccccc1N1CCN(CC2(C)N=C(c3cccnc3)NC2=O)CC1` (stereo not given), the melting point fell in the range of 159 to 162 °C.
The same measure for `O=C(O)CCCc1cc2nc(Cl)ccc2n1S(=O)(=O)c1ccc(C(F)(F)F)cc1`: 185 °C; for `CC1=CC(=O)C(=NNc2ccc(C#N)cc2)C(=O)O1`: 300 °C; for `Cc1ccc(-c2cccc(/C=C/C(=O)Nc3ccc(Cn4ccnc4)cc3)c2)cc1`: 198 to 200 °C.
To `O=C(Nc1ccc(OCc2ccccc2)cc1)C1CC1` belongs 162 °C; to `COCCOc1c(C(=O)CC(=O)C(=O)O)ccc(Cc2ccccc2)c1OC`, 83 to 85 °C; to `Fc1ccc(Cn2c(CC3CCN(Cc4ccccc4)CC3)nc3cncnc32)cc1`, 136 °C.
`CS(=O)(=O)Nc1ccc(Sc2cnc(N)s2)cc1` showed a melting point of 185 to 187 °C.
The same measure for `CCOc1nn(-c2ccccc2Cl)c(=O)o1`: 45 °C.
For `CCP(CC)c1ccc(Cl)cc1`, the melting point was in the range of 77 to 79 °C.
The same measure for `CS(=O)(=O)N1CCCn2c(nc3c(N)nc4cc(-c5cccnc5)ccc4c32)C1`: 302 °C; for `Cc1cc(C)c(NS(=O)(=O)c2cc(S(=O)(=O)Nc3c(C)cc(C)cc3C)c3cc(O)ccc3c2)c(C)c1`: 148 to 150 °C; for `COc1ccc(C2C(Oc3ccccc3)C(=O)N2c2ccc(C(=O)O)cc2)cc1` (stereo not given): 268 °C.
The same measure for `COC1=C(c2ccccc2)C(CCCC(=O)O)OC1=O` (stereo not given): 94 to 96 °C.
To `COC(=N)Nc1ccc(C(F)(F)F)cc1` belongs 121 to 123 °C; to `CC(CN(C)C)Nc1ccnc2cc(Cl)ccc12` (racemic), 168 to 170 °C; to `COCCNc1cc(NCCOC)c([N+](=O)[O-])cc1Cl`, 106 °C.
Take `NC(=O)c1cnn2c(-c3ccccc3)ccnc12`: the melting point lay within 236 to 238 °C.
The same measure for `COc1ccc(S(=O)(=O)N(Cc2cc(C(C)(C)C)c(O)c(C(C)(C)C)c2)c2cccnc2)cc1`: 142 to 143 °C; for `Cn1c(Oc2cccc(N=C=S)c2)nc2ccccc21`: 121 to 124 °C; for `CC1(C(=O)O)CCCc2cc(C3CCCCC3)c(Cl)cc21` (stereo not given): 167 to 168 °C.
To `CCOC(=O)c1cc2c(cn1)[nH]c1ccc([N+](=O)[O-])cc12` belongs 320 to 325 °C; to `O=C(O)C12CC=CCC1CSc1ccccc12` (stereo not given), 152 to 155 °C.
To `C=CCN1CCN(C(=O)Cn2sc3ccccc3c2=O)CC1` belongs 119 to 120 °C; to `CCCC1OC(C(=O)OC)CC2=C1C(=O)c1ccccc1C2=O` (stereo not given), 112 to 114 °C.
As to `O=C(O)C(=O)CC(=O)c1cc(CCc2ccccc2)cn1Cc1ccc(F)cc1`, the melting point lay within 135 to 137 °C.
